Test results: patent US20160158200A1, “Combinations of Hepatitis C Virus Inhibitors” (priority 2013, published 2016)

Tested on: HCV genotype-1a variant with glutamine 30 changed to glutamate in the NS5A protein
Format: cell-based
Settings: test compound titrated with BMS-790052 fixed at 200 nM; genotype 1a Q30E replicon
Summary of the method: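 Synergy was assessed by combining several fixed amounts of an NS5A-targeting compound with a titration of the second compound of interest.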

| SMILES | Fold-Synergistic 1a (Q30E) |
| --- | --- |
| CC(C)(C)OC(=O)NC1CCCCC1C(=O)N[C@H](c1nc(-c2ccc(-c3ccc(-c4c[nH]c([C@@H](NC(=O)C5CCCCC5NC(=O)OC(C)(C)C)C(C)(C)C)n4)cc3)cc2)c[nH]1)C(C)(C)C (single isomer, unassigned) [Compound W-23A] | >100 fold |
| CC(C)(C)[C@H](NC(=O)C1CCC(F)(F)CC1)c1ncc(-c2ccc([C@@H]3C[C@H]3c3ccc(-c4cnc([C@@H](NC(=O)C5CCC(F)(F)CC5)C(C)(C)C)[nH]4)cc3)cc2)[nH]1 [Compound B-190] | >100 fold |
| CC(C)OC(=O)N[C@@H](C(=O)N[C@H](c1ncc(-c2ccc(-c3ccc(-c4cnc([C@@H](NC(=O)[C@H](NC(=O)OC(C)C)C(C)C)C(C)C)[nH]4)cc3)cc2)[nH]1)C(C)C)C(C)C [Compound S-250] | >100 fold |
| CC(C)(C)[C@H](NC(=O)C(C)(O)C1(C)CC1)c1nc(-c2ccc(-c3ccc(-c4c[nH]c([C@@H](NC(=O)C(C)(O)C5(C)CC5)C(C)(C)C)n4)cc3)cc2)c[nH]1 (single isomer, unassigned) [Compound L-93a] | >100 fold |
| CC(C)(C)[C@H](NC(=O)C1(c2ccc(Cl)cc2)CC1)c1nc(-c2ccc(-c3ccc(-c4c[nH]c([C@@H](NC(=O)C5(c6ccc(Cl)cc6)CC5)C(C)(C)C)n4)cc3)cc2)c[nH]1 [Compound N-56] | >100 fold |
| CC1(C(=O)N[C@H](c2nc(-c3ccc(-c4ccc(-c5c[nH]c([C@@H](NC(=O)C6(C)CC(F)(F)CN6)C(C)(C)C)n5)cc4)cc3)c[nH]2)C(C)(C)C)CC(F)(F)CN1 (mixture of isomers) [Compound W-80] | >100 fold |
| COC1(C(=O)N[C@H](c2nc(-c3ccc(-c4ccc(-c5c[nH]c([C@@H](NC(=O)C6(OC)CCC6)C(C)(C)C)n5)cc4)cc3)c[nH]2)C(C)(C)C)CCC1 [Compound P-21] | >100 fold |
| CC(C)(C)[C@H](Nc1ncccn1)c1nc(-c2ccc(-c3ccc(-c4c[nH]c([C@@H](Nc5ncc(Br)cn5)C(C)(C)C)n4)cc3)cc2)c[nH]1 [Compound W-31] | >10 fold |
| CC(C)(C)[C@H](NC(=O)C1CCOCC1)c1nc(-c2ccc(-c3ccc(-c4c[nH]c([C@@H](NC(=O)C5CCOCC5)C(C)(C)C)n4)cc3)cc2)c[nH]1 [Compound W-123] | >100 fold |
| CC(C)(C)[C@H](Nc1nc(Cl)c(Cl)s1)c1nc(-c2ccc(-c3ccc(-c4c[nH]c([C@@H](Nc5nc(Cl)c(Cl)s5)C(C)(C)C)n4)cc3)cc2)c[nH]1 [Compound W-179] | >10 fold |
| CC(C)[C@H](NC(=O)c1ccc(C(F)(F)F)s1)c1ncc(-c2ccc(-c3ccc(-c4cnc([C@@H](NC(=O)c5ccc(C(F)(F)F)s5)C(C)C)[nH]4)cc3)cc2)[nH]1 [Compound Y-21] | >100 fold |
| O=C(c1ccc2c(c1)OCO2)N1CCC[C@H]1c1ncc(-c2ccc(-c3ccc(-c4cnc([C@@H]5CCCN5C(=O)c5ccc6c(c5)OCO6)[nH]4)cc3)cc2)[nH]1 [Compound S-121] | <10 fold |
| CC(C)(C(=O)N[C@H](c1ncc(-c2ccc(-c3ccc(-c4cnc([C@@H](NC(=O)C(C)(C)C5CCOCC5)C(C)(C)C)[nH]4)cc3)cc2)[nH]1)C(C)(C)C)C1CCOCC1 [Compound B98] | >100 fold |
| CC(C)(C)[C@H](NC(=O)C(=O)N1CCCC1)c1nc(-c2ccc(-c3ccc(-c4c[nH]c([C@@H](NC(=O)C(=O)N5CCCC5)C(C)(C)C)n4)cc3)cc2)c[nH]1 [Compound W-21] | >100 fold |
| COc1ccccc1C(=O)N[C@H](c1nc(-c2ccc(-c3ccc(-c4c[nH]c([C@@H](NC(=O)c5ccccc5OC)C(C)(C)C)n4)cc3)cc2)c[nH]1)C(C)(C)C [Compound P-28] | >100 fold |
| CC(C)[C@H](NC(=O)c1ccc(Cl)c(Cl)c1)c1ncc(-c2ccc(-c3ccc(-c4cnc([C@@H](NC(=O)c5ccc(Cl)c(Cl)c5)C(C)C)[nH]4)cc3)cc2)[nH]1 [Compound S-75] | >100 fold |
| COc1ccccc1C(O)CC(=O)N[C@H](c1nc(-c2ccc(-c3ccc(-c4c[nH]c([C@@H](NC(=O)C5(C(O)c6ccccc6OC)CC5)C(C)(C)C)n4)cc3)cc2)c[nH]1)C(C)(C)C (single isomer, unassigned) [Compound N-135C] | >100 fold |
| CC(C)[C@H](NC(=O)C1CCC1)c1ncc(-c2ccc(-c3ccc(-c4cnc([C@@H](NC(=O)C5CCC5)C(C)C)[nH]4)cc3)cc2)[nH]1 [Compound S-22] | >100 fold |
| CC(C)[C@H](NC(=O)N1CCCCC1)c1ncc(-c2ccc(-c3ccc(-c4cnc([C@@H](NC(=O)N5CCCCC5)C(C)C)[nH]4)cc3)cc2)[nH]1 [Compound S-234] | >100 fold |
| COc1ccccc1C(O)C(C)(C)C(=O)N[C@H](c1nc(-c2ccc(-c3ccc(-c4c[nH]c([C@@H](NC(=O)C(C)(C)C(O)c5ccccc5OC)C(C)(C)C)n4)cc3)cc2)c[nH]1)C(C)(C)C (single isomer, unassigned) [Compound N-125A] | >100 fold |

| SMILES | Fold-Synergistic 1a (Q30E) |
| --- | --- |
| CC(C)[C@H](NC(=O)C1(C#N)CC1)c1ncc(-c2ccc(-c3ccc(-c4cnc([C@@H](NC(=O)C5(C#N)CC5)C(C)C)[nH]4)cc3)cc2)[nH]1 [Compound S-54] | >100 fold |
| CC1(C(=O)NC(c2nc(-c3ccc(-c4ccc(-c5c[nH]c(C(NC(=O)C6(C)CCCOC6)C(C)(C)C)n5)cc4)cc3)c[nH]2)C(C)(C)C)CCCOC1 (mixture of isomers) [Compound Y-100] | >100 fold |
| CC(C)[C@H](NC(=O)C1(C)CCCC1)c1ncc(-c2ccc3c(c2)Cc2cc(-c4cnc([C@@H](NC(=O)C5(C)CCCC5)C(C)C)[nH]4)ccc2-3)[nH]1.O=C(O)C(F)(F)F [Compound N-72] | >100 fold |
| CC(C)[C@H](NC(=O)c1cccc(Cl)c1Cl)c1ncc(-c2ccc(-c3ccc(-c4cnc([C@@H](NC(=O)c5cccc(Cl)c5Cl)C(C)C)[nH]4)cc3)cc2)[nH]1 [Compound S-66] | >100 fold |
| CC(C)(C)[C@H](NC(=O)C1CCC(F)(F)CC1)c1ncc(C#Cc2ccc3cc(C#Cc4cnc([C@@H](NC(=O)C5CCC(F)(F)CC5)C(C)(C)C)[nH]4)ccc3c2)[nH]1 [Compound B65] | >100 fold |
| COC(=O)N[C@@H](C(=O)N[C@H](c1ncc(-c2ccc(-c3ccc(-c4cnc([C@@H](NC(=O)[C@H](NC(=O)OC)C5CC5)C(C)C)[nH]4)cc3)cc2)[nH]1)C(C)C)C1CC1 [Compound P-102] | >10 fold |
| CC(C)[C@H](NC(=O)[C@H](NC(=O)OC1CCCC1)C(C)C)c1ncc(-c2ccc(-c3ccc(-c4cnc([C@@H](NC(=O)[C@H](NC(=O)OC5CCCC5)C(C)C)C(C)C)[nH]4)cc3)cc2)[nH]1 [Compound S-251] | >100 fold |
| CC(C)(C(=O)N[C@H](c1nc(-c2ccc(-c3ccc(-c4c[nH]c([C@@H](NC(=O)C(C)(C)C(F)F)C(C)(C)C)n4)cc3)cc2)c[nH]1)C(C)(C)C)C(F)F [Compound P-32] | >100 fold |
| CC(CO)(CF)C(=O)NC(c1nc(-c2ccc(-c3ccc(-c4c[nH]c(C(NC(=O)C(C)(CO)CF)C(C)(C)C)n4)cc3)cc2)c[nH]1)C(C)(C)C (mixture of isomers) [Compound N-138] | >100 fold |
| COc1ccc(C(=O)N[C@H](c2ncc(-c3ccc(-c4ccc(-c5cnc([C@@H](NC(=O)c6ccc(OC)c(OC)c6)C(C)C)[nH]5)cc4)cc3)[nH]2)C(C)C)cc1OC [Compound S-78] | >100 fold |
| CC(C)(C)C(NC(=O)C1CCCN1CC(F)(F)F)c1nc(-c2ccc(-c3ccc(-c4c[nH]c(C(NC(=O)C5CCCN5CC(F)(F)F)C(C)(C)C)n4)cc3)cc2)c[nH]1 [Compound L-52] | >100 fold |
| Cc1onc(-c2ccccc2)c1C(=O)N1CCC[C@H]1c1ncc(-c2ccc(-c3ccc(-c4cnc([C@@H]5CCCN5C(=O)c5c(-c6ccccc6)noc5C)[nH]4)cc3)cc2)[nH]1 [Compound S-118] | <10 fold |
| CC(C)[C@H](NC(=O)c1ccccc1Oc1ccccc1)c1ncc(-c2ccc(-c3ccc(-c4cnc([C@@H](NC(=O)c5ccccc5Oc5ccccc5)C(C)C)[nH]4)cc3)cc2)[nH]1 [Compound S-27] | >10 fold |
| CC(C)[C@H](NC(=O)CCC1CCCC1)c1ncc(-c2ccc(-c3ccc(-c4cnc([C@@H](NC(=O)CCC5CCCC5)C(C)C)[nH]4)cc3)cc2)[nH]1 [Compound S-25] | >100 fold |
| CC(C)(C)[C@H](NC(=O)[C@@H]1C[C@@H]2[C@H](C1)C2(F)F)c1nc(-c2ccc(-c3ccc(-c4c[nH]c([C@@H](NC(=O)[C@@H]5C[C@@H]6[C@H](C5)C6(F)F)C(C)(C)C)n4)cc3)cc2)c[nH]1 [Compound Y-9] | >100 fold |
| CC(C)(C)[C@H](NC(=O)C1(N2CCC(F)(F)CC2)COC1)c1nc(-c2ccc(-c3ccc(-c4c[nH]c([C@@H](NC(=O)C5(N6CCC(F)(F)CC6)COC5)C(C)(C)C)n4)cc3)cc2)c[nH]1 [Compound W-63] | >100 fold |
| CC(C)(C)[C@H](NC(=O)C(C)(C)C1(O)CCC(F)(F)CC1)c1ncc(-c2ccc(C#Cc3ccc4nc([C@@H](NC(=O)C(C)(C)C5(O)CCC(F)(F)CC5)C(C)(C)C)[nH]c4c3)cc2)[nH]1 [Compound B48A] | >100 fold |
| CCOC(C)(C)C(=O)N[C@H](c1nc(-c2ccc(-c3ccc(-c4c[nH]c([C@@H](NC(=O)C(C)(C)OCC)C(C)(C)C)n4)cc3)cc2)c[nH]1)C(C)(C)C [Compound P-26] | >100 fold |
| CC(COCc1ccccc1)(OCCF)C(=O)N[C@H](c1nc(-c2ccc(-c3ccc(-c4c[nH]c([C@@H](NC(=O)C(C)(COCc5ccccc5)OCCF)C(C)(C)C)n4)cc3)cc2)c[nH]1)C(C)(C)C (single isomer, unassigned) [Compound W-261b] | >100 fold |
| COC1(C(=O)N[C@H](c2ncc(-c3ccc(-c4ccc(-c5cnc([C@@H](NC(=O)C6(OC)CCC(F)(F)CC6)C6(C)CC6)[nH]5)cc4)cc3)[nH]2)C2(C)CC2)CCC(F)(F)CC1 [Compound P-132] | >100 fold |
